Assay results as given in ChEMBL document CHEMBL3856182, “How much successful are the medicinal chemists in modulation of SIRT1: A critical review” (Eur J Med Chem, 2016).

Tests used:
[1] = target: T1, NAD-dependent protein deacetylase sirtuin-1 (Homo sapiens) (UniProt Q96EB6); assay: Activation of recombinant human SIRT1 using TPE-GK(Ac)YDD as substrate at 1 to 50 uM by fluorescence assay relative to control
T1 sequence (whole entry): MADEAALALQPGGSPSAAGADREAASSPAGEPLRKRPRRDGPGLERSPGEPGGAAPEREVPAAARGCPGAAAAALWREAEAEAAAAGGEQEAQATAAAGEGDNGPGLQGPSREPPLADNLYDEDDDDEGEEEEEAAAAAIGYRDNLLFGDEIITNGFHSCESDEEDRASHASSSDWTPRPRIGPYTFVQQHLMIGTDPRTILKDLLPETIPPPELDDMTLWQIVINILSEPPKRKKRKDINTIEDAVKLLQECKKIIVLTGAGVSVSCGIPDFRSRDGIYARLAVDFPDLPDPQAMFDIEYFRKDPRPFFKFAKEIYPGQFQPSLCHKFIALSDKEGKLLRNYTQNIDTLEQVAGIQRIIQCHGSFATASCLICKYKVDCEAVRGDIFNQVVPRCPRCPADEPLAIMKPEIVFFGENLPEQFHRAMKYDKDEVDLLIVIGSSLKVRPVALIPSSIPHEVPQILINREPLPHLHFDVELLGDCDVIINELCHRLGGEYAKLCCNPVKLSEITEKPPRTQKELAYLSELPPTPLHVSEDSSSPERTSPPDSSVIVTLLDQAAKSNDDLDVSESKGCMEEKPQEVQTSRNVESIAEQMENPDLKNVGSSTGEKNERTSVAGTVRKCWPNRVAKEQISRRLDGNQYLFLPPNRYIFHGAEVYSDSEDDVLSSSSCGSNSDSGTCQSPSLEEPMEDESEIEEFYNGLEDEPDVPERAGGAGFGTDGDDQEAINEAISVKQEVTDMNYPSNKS

[2] = target: T2, NAD-dependent protein deacetylase sirtuin-1 (Homo sapiens, UniProt Q96EB6); assay: Inhibition of human SIRT1 using biotinylated peptide with an acetylated FLAG sequence as substrate measured after 3 hr in presence of NAD+ by TR-FRET assay
T2 sequence (Q96EB6 whole entry): T1 sequence (whole entry)

[3] = target: T3, NAD-dependent protein deacetylase sirtuin-2 (Homo sapiens, UniProt Q8IXJ6); assay: Inhibition of human SIRT2 using biotin labeled histone H4 peptide with an acetylated lysine 4 as substrate measured after 1 hr by luminescence analysis
T3 sequence (Q8IXJ6 whole entry): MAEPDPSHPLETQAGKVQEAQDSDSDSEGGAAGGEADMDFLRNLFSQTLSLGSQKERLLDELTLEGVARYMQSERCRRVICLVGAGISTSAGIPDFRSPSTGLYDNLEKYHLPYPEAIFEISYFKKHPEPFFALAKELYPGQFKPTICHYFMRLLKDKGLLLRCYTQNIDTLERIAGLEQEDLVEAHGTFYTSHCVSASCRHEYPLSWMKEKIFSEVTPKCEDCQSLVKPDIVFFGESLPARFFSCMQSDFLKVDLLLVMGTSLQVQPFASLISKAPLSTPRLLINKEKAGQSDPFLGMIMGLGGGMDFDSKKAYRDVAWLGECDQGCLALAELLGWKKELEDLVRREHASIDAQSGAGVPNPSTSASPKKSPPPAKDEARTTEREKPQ

[4] = target: T3, NAD-dependent protein deacetylase sirtuin-2; assay: Inhibition of recombinant human GST-tagged SIRT2 overexpressed in Escherichia coli DH5alpha assessed as deacetylation activity using [3H]-MPSDKTIGG as substrate measured after overnight incubation by liquid scintillation counting method
[5] = target: T2, NAD-dependent protein deacetylase sirtuin-1; assay: Inhibition of recombinant human GST-tagged SIRT1 overexpressed in Escherichia coli DH5alpha assessed as deacetylation activity using [3H]-MPSDKTIGG as substrate measured after overnight incubation by liquid scintillation counting method
[6] = target: T3, NAD-dependent protein deacetylase sirtuin-2; assay: Inhibition of full-length human N-terminal His6-tagged SIRT2 expressed in Escherichia coli BL21 (DE3) assessed as inhibition of deacetylase activity using ZMAL as substrate measured after 4 hrs by Fluor de Lys assay
[7] = target: T2, NAD-dependent protein deacetylase sirtuin-1; assay: Inhibition of full-length human N-terminal GST-tagged SIRT1 expressed in Escherichia coli BL21 (DE3) assessed as inhibition of deacetylase activity using ZMAL as substrate measured after 4 hrs by Fluor de Lys assay
[8] = target: T1, NAD-dependent protein deacetylase sirtuin-1 (Homo sapiens); assay: Activation of recombinant human SIRT1 using TPE-GK(Ac)YDD as substrate at 50 uM by fluorescence assay relative to control
[9] = target: T2, NAD-dependent protein deacetylase sirtuin-1; assay: Inhibition of SIRT1 (unknown origin) using acetylated lysine as substrate by Fluor de Lys assay
[10] = target: T2, NAD-dependent protein deacetylase sirtuin-1; assay: Inhibition of recombinant SIRT1 (unknown origin) assessed as deacetylation activity using acetylated p53 as substrate measured after 2 hrs by Fluor de Lys assay
Saccharomyces cerevisiae = assay: Growth inhibition of yeast
[11] = target: T2, NAD-dependent protein deacetylase sirtuin-1; assay: Activation of recombinant human SIRT1 assessed as increase in deacetylation of Fluor de Lys-SIRT1-specific substrate after 2 hrs by HTS assay
[12] = target: NAD-dependent histone deacetylase SIR2 (Saccharomyces cerevisiae S288c, UniProt P06700); assay: Non-competitive inhibition of recombinant yeast glutathione-S-transferase-tagged SIRT2 using acetylated histone as substrate measured after 30 mins by fluorimetric analysis
NAD-dependent histone deacetylase SIR2, sequence (P06700 whole entry): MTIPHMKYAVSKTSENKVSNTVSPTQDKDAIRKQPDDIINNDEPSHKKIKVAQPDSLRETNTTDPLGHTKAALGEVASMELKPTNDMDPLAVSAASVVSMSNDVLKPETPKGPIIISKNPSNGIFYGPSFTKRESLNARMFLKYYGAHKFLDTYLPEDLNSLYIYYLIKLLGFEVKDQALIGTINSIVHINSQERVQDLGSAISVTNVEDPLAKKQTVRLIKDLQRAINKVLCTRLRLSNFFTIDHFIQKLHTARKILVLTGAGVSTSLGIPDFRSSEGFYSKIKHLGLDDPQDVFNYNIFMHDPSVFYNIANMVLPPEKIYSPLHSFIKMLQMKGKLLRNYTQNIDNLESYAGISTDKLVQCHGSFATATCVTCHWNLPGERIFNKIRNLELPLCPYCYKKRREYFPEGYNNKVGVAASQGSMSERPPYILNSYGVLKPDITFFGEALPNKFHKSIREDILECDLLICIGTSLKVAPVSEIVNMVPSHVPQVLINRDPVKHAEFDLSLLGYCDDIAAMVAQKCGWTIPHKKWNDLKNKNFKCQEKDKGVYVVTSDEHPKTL

[13] = Cytotoxicity in human MDA-MB-231 cells assessed as growth inhibition measured after 48 hrs by MTT assay; format: functional; conditions: MDA-MB-231, 48 h
[14] = Cytotoxicity in human Caco2 cells assessed as growth inhibition measured after 48 hrs by MTT assay; format: functional; conditions: Caco-2, 48 h
[15] = Cytotoxicity in human U937 cells assessed as growth inhibition measured after 48 hrs by MTT assay; format: functional; conditions: U-937, 48 h
[16] = Cytotoxicity in human LNCAP cells assessed as growth inhibition measured after 48 hrs by MTT assay; format: functional
[17] = Cytotoxicity in HEK293 cells assessed as growth inhibition measured after 48 hrs by MTT assay; format: toxicity, cell-based; conditions: human

For `CC(C)=CCC[C@](C)(O[C@@H]1O[C@H](CO[C@@H]2OC[C@H](O)[C@H](O)[C@H]2O)[C@@H](O)[C@H](O)[C@H]1O)[C@H]1CC[C@]2(C)[C@@H]1[C@H](O)C[C@@H]1[C@@]3(C)CC[C@H](O[C@@H]4O[C@H](CO)[C@@H](O)[C@H](O)[C@H]4O[C@@H]4O[C@H](CO)[C@@H](O)[C@H](O)[C@H]4O)C(C)(C)[C@@H]3CC[C@]12C`, the Activity [1] was 8 to 152%.
In the case of `Cn1ncnc2c(=O)n(C)c(=O)nc1-2`, the IC50 [2] is reported as 0.87 µM and the IC50 [3] is reported as 14.4 µM.
`CC(C)=CCC[C@]1(C)[C@@H](CC=C(C)C)C[C@@]2(CC=C(C)C)C(=O)[C@]1(C(=O)C(C)C)C(=O)C(CC=C(C)C)=C2OCC(=O)O` showed an IC50 [4] of 21 µM and an IC50 [5] of 7 µM.
`CC(C)=CCC[C@]1(C)[C@@H](CC=C(C)C)C[C@]2(CC=C(C)C)C(=O)C(CC=C(C)C)=C(O)[C@@]1(C(=O)C(C)C)C2=O` gave an IC50 [4] of 28 µM and an IC50 [5] of 15 µM.
Work on `Nc1cc(NC(=O)Nc2cccc(C(=O)Nc3cccc(C(=O)Nc4ccc(S(=O)(=O)O)c5cc(S(=O)(=O)O)cc(S(=O)(=O)O)c45)c3)c2)cc(C(=O)Nc2cccc(C(=O)Nc3ccc(S(=O)(=O)O)c4cc(S(=O)(=O)O)cc(S(=O)(=O)O)c34)c2)c1` yielded an IC50 [6] of 2.26 µM and an IC50 [7] of 0.093 µM.
`COc1cc2c(c(OC)c1OC)-c1c(cc(OC)c(OC)c1OC)C[C@H](C)[C@H](C)C2` gave an Activity [8] of 28%.
For `NC(=O)c1ccccc1Oc1ccccc1`, the IC50 [9] was greater than 100 µM.
`COc1ccc2[nH]c3c(c2c1)CCCC3C(=O)O` (centres undefined) showed an IC50 [10] of 2.8 µM.
Compound `CC(C)=CCC[C@](C)(O[C@@H]1O[C@H](CO[C@@H]2O[C@@H](CO)[C@H](O)[C@H]2O)[C@@H](O)[C@H](O)[C@H]1O)[C@H]1CC[C@]2(C)[C@@H]1[C@H](O)C[C@@H]1[C@@]3(C)CC[C@H](O[C@@H]4O[C@H](CO)[C@@H](O)[C@H](O)[C@H]4O[C@@H]4O[C@H](CO)[C@@H](O)[C@H](O)[C@H]4O)C(C)(C)[C@@H]3CC[C@]12C` has an Activity [8] of 88%.
`CN(C)/C=N/C(=O)C1CCCc2c1[nH]c1ccc(Cl)cc21` (centres undefined) showed an IC50 [10] of 0.149 µM.
`CN(C)CCCCC(=O)Nc1ccc(NC(=S)NC(=O)c2ccc(C(C)(C)C)cc2)cc1` gave an IC50 (Saccharomyces cerevisiae) of 30 µM.
In the case of `COCCCn1c(N)c(C(=O)NC2CCCC2)c2nc3ccccc3nc21`, the EC50 [11] is reported as less than 1 µM.
In the case of `NC(=O)c1cccnc1` [NIACINAMIDE], the IC50 [12] is reported as less than 50 µM.
For `CC(C)=CCC/C(C)=C/C[C@@H]1C[C@]2(CC=C(C)C)C(=O)[C@@](CC=C(C)C)(C(=O)C(Cc3ccc(O)c(O)c3)=C2O)[C@@]1(C)CCC=C(C)C`, the IC50 [4] was 22 µM and the IC50 [5] was 9 µM.
In the case of `O=C(O)c1cccc(NC(=O)c2ccc(N3C(=O)c4ccc(C(=O)Nc5cccc(C(=O)O)c5)cc4C3=O)cc2)c1`, the GI50 [13] is reported as less than 1 µM, the GI50 [14] is reported as less than 1 µM and the GI50 [15] is reported as less than 1 µM. For the same compound, the GI50 [16] was less than 1 µM and the GI50 at 48 h [17] was less than 1 µM.
